# Measurements published in patent publication US20090312280A1.
# Key:
# Fms = Fms (Homo sapiens, UniProt P07333); test: biochemical kinase screening assay
# Ret = Ret (Homo sapiens, UniProt P07949); test: biochemical kinase screening assay
# P70S6K = P70S6K (Homo sapiens, UniProt P23443); test: biochemical kinase screening assay
# cSRC = cSRC (Homo sapiens, UniProt P12931); test: biochemical kinase screening assay
# Fyn = Fyn (Homo sapiens, UniProt P06241); test: biochemical kinase screening assay
# Chain of Fyn (P06241 whole entry): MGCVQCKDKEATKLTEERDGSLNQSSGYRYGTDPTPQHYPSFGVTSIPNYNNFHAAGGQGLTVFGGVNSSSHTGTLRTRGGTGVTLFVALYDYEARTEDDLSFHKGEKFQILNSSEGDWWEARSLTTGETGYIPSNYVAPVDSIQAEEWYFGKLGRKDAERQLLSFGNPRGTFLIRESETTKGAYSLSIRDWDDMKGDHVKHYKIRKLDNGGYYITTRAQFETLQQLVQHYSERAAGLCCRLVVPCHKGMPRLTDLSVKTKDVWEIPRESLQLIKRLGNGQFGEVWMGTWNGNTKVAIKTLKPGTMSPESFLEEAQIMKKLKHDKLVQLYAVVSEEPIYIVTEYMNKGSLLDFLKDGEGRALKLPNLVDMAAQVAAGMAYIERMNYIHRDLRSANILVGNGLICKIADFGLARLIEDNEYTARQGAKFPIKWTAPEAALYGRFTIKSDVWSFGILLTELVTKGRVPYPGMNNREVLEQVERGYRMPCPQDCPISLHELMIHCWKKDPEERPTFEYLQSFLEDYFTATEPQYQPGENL
# PKBa = PKBa (Homo sapiens, UniProt P31749); test: biochemical kinase screening assay
# Chain of PKBa (P31749 whole entry): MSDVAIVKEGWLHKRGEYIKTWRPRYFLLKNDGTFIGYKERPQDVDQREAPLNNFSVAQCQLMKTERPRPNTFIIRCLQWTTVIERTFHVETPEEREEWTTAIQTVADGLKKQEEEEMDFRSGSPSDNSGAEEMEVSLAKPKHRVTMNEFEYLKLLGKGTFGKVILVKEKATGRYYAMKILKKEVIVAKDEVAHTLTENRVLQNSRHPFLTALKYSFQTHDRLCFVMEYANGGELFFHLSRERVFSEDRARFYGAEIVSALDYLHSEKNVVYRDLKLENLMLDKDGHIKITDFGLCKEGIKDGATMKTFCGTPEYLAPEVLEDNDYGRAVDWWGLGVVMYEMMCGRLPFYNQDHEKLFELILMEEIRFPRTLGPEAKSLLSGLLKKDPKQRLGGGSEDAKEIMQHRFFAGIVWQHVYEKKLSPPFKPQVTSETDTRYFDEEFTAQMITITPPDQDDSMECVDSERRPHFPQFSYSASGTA
# [1] = tested on: G2 checkpoint induced by camptothecin (Histone H3 phosphorylation on Ser10); test: Histone H3 phosphorylation assay (G2 checkpoint abrogation); format: cell-based; details: read-out: EC50, abrogation of G2 checkpoint (increase in Histone H3 phosphorylation on Ser10)
# MDA-MB-231 (Breast) = test: cell survival / MTT combination cytotoxicity; format: cell-based, human; details: Homo sapiens
# A431 tumor xenografts = test: in vivo radio sensitizing study, A431 xenograft; parameters: species or system mice; details: for Normalized Tumor Growth Delay: versus drug alone; for Tumor Growth Delay: versus vehicle control
# Text: Female Balb/c nude mice (Age 6 weeks) were inoculated on the right hind limb with 3×10^6 A431 cells in PBS and allowed the tumor to grow to a mean tumor volume ˜100 mm^3. The mice were randomized into groups of 10 animals each group.
# The unanaesthetized mice were then subjected to radiation. Radiation was delivered using a 6 MeV high dose rate electron beam from a Varian 2100 Linear Accelerator (Palo Alto, Calif.). The dose rate used was 20 Gy/min. The depth-dose characteristics of the electron beam were such that dose uniformity to within ±5 % was obtained over a 10 mm depth of tissue. This was sufficient to cover all tumor irradiated. The tumor was irradiated though a 25 mm square collimator cut from 3 mm thick lead sheet attached to a 6 mm thick Perspex sheet. The separation between the tumor and the lower (Perspex) side of the surface collimator was approximately 25 mm. The apparatus was supported on a plate heated to 37° C. in order to reduce the effects of heat loss in the mice. Radiation doses were calculated and delivered by a senior radiation physicist. Radiotherapy was given as described above on Days 0-4 as 2, 3 or 4 Gy daily fractions.
# The solution was prepared immediately prior to dosing and (15 mg/kg) was administered by intraperitoneal injection at 15 mg/kg on Days 0-4 immediately following radiotherapy. The above solution that contains no Compound 1 is considered as the “drug vehicle” or “vehicle”. Drug vehicle was administered at 0.1 ml/10 g body weight on the same schedule.
# Each group of mice were treated with Compound 1 only, radiation only, or the combination of Compound 1 and radiation. Animals were sacrificed when Tumor Volume Ratio (TVR) reached or exceeded 4 or if the mouse had lost more than 15% of its baseline body weight at Day 0. Tumor Volume Ratio is defined as the ratio between the tumors volume at a particular time and the baseline tumor volume, which is the tumor volume at Day 0.
# Tumor volume was measured three times weekly from day 0 to day 11 and even further to day 23. Tumor volume was measured using electronic calipers and calculated as length/2×width^2. The mean tumor volume was calculated for each group of mice.
# Tumor growth delay is defined as the median time in days for tumors to reach a TVR of 4 minus time for vehicle control tumors to reach the same size. Normalized growth delay is defined as the time in days for tumors in combination treated mice to reach TVR of 4 minus time in days for tumors in drug alone treated mice to reach the same size. Enhancement ratio is defined as normalized tumor growth delay in mice treated with drug and radiation divided by tumor growth delay in mice treated with radiation alone.
# in vivo = details: mouse
# [2] = maximum tolerated dose by mean body weight loss; details: in vivo
# [3] = Compound 1 15 mg/kg IP plus Radiation (2 Gy × 5)
# [4] = Compound 1 15 mg/kg IP plus Radiation (3 Gy × 5)
# [5] = Compound 1 15 mg/kg IP plus Radiation (4 Gy × 5)
# [6] = Compound 1 alone, 15 mg/kg IP Days 0-4
# Chain of P70S6K (P23443 whole entry): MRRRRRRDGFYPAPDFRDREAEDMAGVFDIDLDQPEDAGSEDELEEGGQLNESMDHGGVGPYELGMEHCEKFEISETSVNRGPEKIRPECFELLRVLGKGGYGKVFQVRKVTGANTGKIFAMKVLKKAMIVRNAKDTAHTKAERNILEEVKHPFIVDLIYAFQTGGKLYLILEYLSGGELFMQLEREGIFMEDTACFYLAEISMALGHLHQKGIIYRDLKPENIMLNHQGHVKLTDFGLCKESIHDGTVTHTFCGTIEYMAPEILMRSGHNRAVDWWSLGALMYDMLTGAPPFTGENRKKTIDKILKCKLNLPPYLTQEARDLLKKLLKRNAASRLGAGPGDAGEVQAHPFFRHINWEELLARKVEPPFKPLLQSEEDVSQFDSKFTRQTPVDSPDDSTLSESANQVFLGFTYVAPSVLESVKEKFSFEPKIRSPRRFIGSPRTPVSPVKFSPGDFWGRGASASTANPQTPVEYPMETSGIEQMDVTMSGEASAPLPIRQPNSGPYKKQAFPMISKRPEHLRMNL
# Chain of cSRC (P12931 whole entry): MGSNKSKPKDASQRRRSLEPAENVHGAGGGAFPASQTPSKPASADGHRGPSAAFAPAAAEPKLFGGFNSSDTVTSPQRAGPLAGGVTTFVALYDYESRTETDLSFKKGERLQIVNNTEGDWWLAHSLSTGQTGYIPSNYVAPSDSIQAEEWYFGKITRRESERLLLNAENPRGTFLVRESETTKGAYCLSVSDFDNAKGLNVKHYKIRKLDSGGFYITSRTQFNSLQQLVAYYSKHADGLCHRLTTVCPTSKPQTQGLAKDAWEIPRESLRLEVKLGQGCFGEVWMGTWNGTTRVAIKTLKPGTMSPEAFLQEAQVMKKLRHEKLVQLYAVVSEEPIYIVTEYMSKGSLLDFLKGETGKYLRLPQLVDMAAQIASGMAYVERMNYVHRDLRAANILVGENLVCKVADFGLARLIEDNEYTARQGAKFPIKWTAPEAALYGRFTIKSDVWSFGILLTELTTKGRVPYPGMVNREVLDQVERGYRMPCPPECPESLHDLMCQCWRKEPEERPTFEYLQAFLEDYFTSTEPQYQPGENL
# Chain of Ret (P07949 29-1114): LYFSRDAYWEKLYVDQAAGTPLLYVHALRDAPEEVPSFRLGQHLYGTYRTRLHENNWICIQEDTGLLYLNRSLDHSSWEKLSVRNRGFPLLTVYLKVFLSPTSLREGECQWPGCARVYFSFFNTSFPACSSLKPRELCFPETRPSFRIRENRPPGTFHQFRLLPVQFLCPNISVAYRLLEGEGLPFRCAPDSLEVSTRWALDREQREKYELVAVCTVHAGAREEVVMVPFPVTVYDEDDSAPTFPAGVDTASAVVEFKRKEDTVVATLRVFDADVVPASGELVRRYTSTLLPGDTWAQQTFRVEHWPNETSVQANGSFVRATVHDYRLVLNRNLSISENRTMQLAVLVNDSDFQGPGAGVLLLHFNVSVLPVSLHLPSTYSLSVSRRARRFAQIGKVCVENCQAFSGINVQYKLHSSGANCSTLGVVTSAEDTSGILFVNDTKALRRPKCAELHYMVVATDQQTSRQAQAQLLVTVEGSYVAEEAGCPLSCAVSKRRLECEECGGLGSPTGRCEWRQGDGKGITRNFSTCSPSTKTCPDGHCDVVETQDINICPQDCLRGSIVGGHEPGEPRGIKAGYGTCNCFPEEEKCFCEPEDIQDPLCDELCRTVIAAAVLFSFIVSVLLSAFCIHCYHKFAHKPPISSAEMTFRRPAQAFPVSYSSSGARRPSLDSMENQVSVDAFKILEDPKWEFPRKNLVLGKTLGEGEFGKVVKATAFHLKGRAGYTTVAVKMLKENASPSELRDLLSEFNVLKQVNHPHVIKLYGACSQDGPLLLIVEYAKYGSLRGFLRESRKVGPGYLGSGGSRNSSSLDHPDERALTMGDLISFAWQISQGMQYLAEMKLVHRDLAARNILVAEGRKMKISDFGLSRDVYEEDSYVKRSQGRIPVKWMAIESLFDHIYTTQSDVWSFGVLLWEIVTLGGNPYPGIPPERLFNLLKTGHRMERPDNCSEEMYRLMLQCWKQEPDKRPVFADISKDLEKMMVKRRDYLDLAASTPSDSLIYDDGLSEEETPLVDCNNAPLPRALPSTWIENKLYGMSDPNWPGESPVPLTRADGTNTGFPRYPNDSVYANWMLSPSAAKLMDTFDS
# Chain of Fms (P07333 20-972): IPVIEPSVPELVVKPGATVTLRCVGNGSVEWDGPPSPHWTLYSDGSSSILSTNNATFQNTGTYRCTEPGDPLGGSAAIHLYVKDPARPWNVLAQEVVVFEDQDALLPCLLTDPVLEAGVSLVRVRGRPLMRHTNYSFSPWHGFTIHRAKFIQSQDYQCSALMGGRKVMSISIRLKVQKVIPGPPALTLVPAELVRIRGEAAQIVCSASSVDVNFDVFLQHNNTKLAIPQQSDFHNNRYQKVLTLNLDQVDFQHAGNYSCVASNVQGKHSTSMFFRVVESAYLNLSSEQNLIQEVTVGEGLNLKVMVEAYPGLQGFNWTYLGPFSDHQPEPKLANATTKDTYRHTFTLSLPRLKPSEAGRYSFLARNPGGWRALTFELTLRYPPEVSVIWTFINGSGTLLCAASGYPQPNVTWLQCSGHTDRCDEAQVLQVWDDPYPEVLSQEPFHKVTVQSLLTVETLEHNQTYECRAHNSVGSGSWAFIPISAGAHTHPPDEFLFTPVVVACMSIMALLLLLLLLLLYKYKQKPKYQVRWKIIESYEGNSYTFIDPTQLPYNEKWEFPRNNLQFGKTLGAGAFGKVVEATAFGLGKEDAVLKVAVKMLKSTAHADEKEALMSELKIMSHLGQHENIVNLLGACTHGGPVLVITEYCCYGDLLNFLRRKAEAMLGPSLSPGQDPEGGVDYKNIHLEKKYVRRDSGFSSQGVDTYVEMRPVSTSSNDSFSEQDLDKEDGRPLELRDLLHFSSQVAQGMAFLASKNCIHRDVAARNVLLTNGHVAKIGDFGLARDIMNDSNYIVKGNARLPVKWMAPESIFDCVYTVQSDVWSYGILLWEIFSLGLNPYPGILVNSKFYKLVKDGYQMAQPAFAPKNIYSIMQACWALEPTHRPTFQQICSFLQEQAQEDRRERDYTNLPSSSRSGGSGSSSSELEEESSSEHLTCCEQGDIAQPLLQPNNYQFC
smiles,measurement,setting,value
Cn1cc(-c2[nH]c3cc(NC(=O)[C@H](N)C4CCCCC4)cc4c3c2C=NNC4=O)cn1 [Compound 1],IC50,Fms,10 nM
same,IC50,Ret,39 nM
same,IC50,P70S6K,61 nM
same,IC50,cSRC,442 nM
same,IC50,Fyn,953 nM
same,IC50,PKBa,9.2 µM
same,EC50,[1],45 nM
same,IC50,MDA-MB-231 (Breast),1400 nM
same,Median time to TVR = 4,A431 tumor xenografts; [3],11.1 days
same,Normalized Tumor Growth Delay,A431 tumor xenografts; [3],3.75 days
same,Tumor Growth Delay,A431 tumor xenografts; [3],2.7 days
same,Median time to TVR = 4,A431 tumor xenografts; [4],15.1 days
same,Normalized Tumor Growth Delay,A431 tumor xenografts; [4],7.75 days
same,Tumor Growth Delay,A431 tumor xenografts; [4],6.7 days
same,Median time to TVR = 4,A431 tumor xenografts; [5],13 days
same,Normalized Tumor Growth Delay,A431 tumor xenografts; [5],5.65 days
same,Tumor Growth Delay,A431 tumor xenografts; [5],4.6 days
same,Median time to TVR = 4,A431 tumor xenografts; [6],7.35 days
same,Tumor Growth Delay,A431 tumor xenografts; [6],-1.05 days
same,mean tumor volume,"A431 tumor xenografts; day 0, 2 Gy + Cmpd 1 15 mg/kg IP, Days 0-4",94.51 mm^3
same,mean tumor volume,"A431 tumor xenografts; day 0, 3 Gy + Cmpd 1 15 mg/kg IP, Days 0-4",104.26 mm^3
same,mean tumor volume,"A431 tumor xenografts; day 0, 4 Gy + Cmpd 1 15 mg/kg IP, Days 0-4",101.97 mm^3
same,mean tumor volume,"A431 tumor xenografts; day 0, Cmpd 1 only, 15 mg/kg IP Days 0-4",104.23 mm^3
same,mean tumor volume,"A431 tumor xenografts; day 2, 2 Gy + Cmpd 1 15 mg/kg IP, Days 0-4",145.53 mm^3
same,mean tumor volume,"A431 tumor xenografts; day 2, 3 Gy + Cmpd 1 15 mg/kg IP, Days 0-4",149.88 mm^3
same,mean tumor volume,"A431 tumor xenografts; day 2, 4 Gy + Cmpd 1 15 mg/kg IP, Days 0-4",150.81 mm^3
same,mean tumor volume,"A431 tumor xenografts; day 2, Cmpd 1 only, 15 mg/kg IP Days 0-4",158.07 mm^3
same,mean tumor volume,"A431 tumor xenografts; day 4, 2 Gy + Cmpd 1 15 mg/kg IP, Days 0-4",198.57 mm^3
same,mean tumor volume,"A431 tumor xenografts; day 4, 3 Gy + Cmpd 1 15 mg/kg IP, Days 0-4",210.23 mm^3
same,mean tumor volume,"A431 tumor xenografts; day 4, 4 Gy + Cmpd 1 15 mg/kg IP, Days 0-4",209.44 mm^3
same,mean tumor volume,"A431 tumor xenografts; day 4, Cmpd 1 only, 15 mg/kg IP Days 0-4",242.46 mm^3
same,mean tumor volume,"A431 tumor xenografts; day 7, 2 Gy + Cmpd 1 15 mg/kg IP, Days 0-4",255.23 mm^3
same,mean tumor volume,"A431 tumor xenografts; day 7, 3 Gy + Cmpd 1 15 mg/kg IP, Days 0-4",200.48 mm^3
same,mean tumor volume,"A431 tumor xenografts; day 7, 4 Gy + Cmpd 1 15 mg/kg IP, Days 0-4",307.93 mm^3
same,mean tumor volume,"A431 tumor xenografts; day 7, Cmpd 1 only, 15 mg/kg IP Days 0-4",418.28 mm^3
same,mean tumor volume,"A431 tumor xenografts; day 9, 2 Gy + Cmpd 1 15 mg/kg IP, Days 0-4",339.76 mm^3
same,mean tumor volume,"A431 tumor xenografts; day 9, 3 Gy + Cmpd 1 15 mg/kg IP, Days 0-4",164.45 mm^3
same,mean tumor volume,"A431 tumor xenografts; day 9, 4 Gy + Cmpd 1 15 mg/kg IP, Days 0-4",294.63 mm^3
same,mean tumor volume,"A431 tumor xenografts; day 9, Cmpd 1 only, 15 mg/kg IP Days 0-4",580.35 mm^3
same,mean tumor volume,"A431 tumor xenografts; day 11, 2 Gy + Cmpd 1 15 mg/kg IP, Days 0-4",401.96 mm^3
same,mean tumor volume,"A431 tumor xenografts; day 11, 3 Gy + Cmpd 1 15 mg/kg IP, Days 0-4",210.35 mm^3
same,mean tumor volume,"A431 tumor xenografts; day 11, 4 Gy + Cmpd 1 15 mg/kg IP, Days 0-4",487.78 mm^3
same,mean tumor volume,"A431 tumor xenografts; day 11, Cmpd 1 only, 15 mg/kg IP Days 0-4",790.82 mm^3
same,mean tumor volume,"A431 tumor xenografts; day 14, 2 Gy + Cmpd 1 15 mg/kg IP, Days 0-4",644.80 mm^3
same,mean tumor volume,"A431 tumor xenografts; day 14, 3 Gy + Cmpd 1 15 mg/kg IP, Days 0-4",283.51 mm^3
same,mean tumor volume,"A431 tumor xenografts; day 14, 4 Gy + Cmpd 1 15 mg/kg IP, Days 0-4",815.01 mm^3
same,mean tumor volume,"A431 tumor xenografts; day 16, 3 Gy + Cmpd 1 15 mg/kg IP, Days 0-4",408.01 mm^3
same,mean tumor volume,"A431 tumor xenografts; day 18, 3 Gy + Cmpd 1 15 mg/kg IP, Days 0-4",433.83 mm^3
same,mean tumor volume,"A431 tumor xenografts; day 21, 3 Gy + Cmpd 1 15 mg/kg IP, Days 0-4",395.17 mm^3
same,mean tumor volume,"A431 tumor xenografts; day 23, 3 Gy + Cmpd 1 15 mg/kg IP, Days 0-4",513.31 mm^3
same,MTD,in vivo,60 mg/kg
same,MTD,[2],40 mg/kg
